The results in this text go back to US20110143999A1, “FOWLICIDINS AND METHODS OF ITS USE” (priority 2005, published 2011).

Molecules are shown by their SMILES. In brackets after ≈: the same amount, converted by molar mass. Where two headings read alike, the source gives them in different places. Residues, ends and D or L forms follow the SMILES beside them. A value given as a limit tells only on which side of the number the result lay.

In data set [1] the test system is S. typhimurium ATCC 14028.
In data set [2] the test system is S. aureus ATCC 25923.
Data set [3] relates to E. coli ATCC 25922.
Data set [4] deals with L. monocytogenes ATCC 19115. Kind of data set: Modified broth microdilution assay (1% MHB). The note with it: Table V, Example 2, listed as fowlicidin-1-K^7L^12K^14L^16K^18.
Another data set deals with LPS from E. coli O111:B4. Briefly: LPS binding assay (chromogenic Limulus amebocyte lysate). The note with it: Table V; 50% inhibition of LPS-mediated procoagulant activation.
The subject of data set [5] is three Gram-negative and four Gram-positive bacteria. The note with it: Example 3; 20% TSB, 25 mM NaHCO3, 1 mM NaH2PO4, with or without 100 mM NaCl.
Data set [6] concerns E. coli O157:H7 ATCC 700728. Conditions: 1% MHB.
The test system of data set [7] is S. typhimurium DT104 ATCC 700408.
For data set [8], the system named is K. pneumoniae ATCC 13883.
In data set [9] the test system is S. aureus (MRSA) ATCC BAA-39.
For data set [10], the system named is S. typhimurium ATCC 14028. This is another data set of the same source.
The subject of data set [11] is S. typhimurium DT104 ATCC 700408. This is another data set of the same source.
Data set [12] deals with S. aureus (MRSA) ATCC 43300.
For data set [13], the system named is S. enteritidis ATCC 13076.
For data set [14], the system named is S. aureus ATCC 25923. The source holds these as a separate data set.
The test system of data set [15] is MDCK cells. Kind of data set: Cytotoxicity assay (alamarBlue). In general terms: The colour change of resazurin is a common sign of viable cells or microbes.
For data set [16], the system named is E. coli ATCC 25922. This is another data set of the same source.
For data set [17], the system named is L. monocytogenes ATCC 19115.
The subject of data set [18] is MDCK cells.
Data set [19] relates to S. aureus (MRSA) ATCC BAA-39. The source holds these as a separate data set.
Data set [20] has as its system Gram-negative and Gram-positive bacteria. Conditions: Example 4, summary of Table VII.
Data set [21] relates to K. pneumoniae ATCC 13883. The source holds these as a separate data set.

In the case of `CC[C@H](C)[C@H](NC(=O)[C@H](C)NC(=O)[C@H](CCCNC(=N)N)NC(=O)[C@H](Cc1ccc(O)cc1)NC(=O)[C@H](CC(C)C)NC(=O)[C@H](CCCCN)NC(=O)[C@H](Cc1ccc(O)cc1)NC(=O)[C@H](CC(C)C)NC(=O)[C@H](C)NC(=O)[C@H](CCCCN)NC(=O)[C@@H](NC(=O)[C@H](CC(C)C)NC(=O)[C@H](CCCNC(=N)N)NC(=O)[C@@H](NC(=O)[C@@H](NC(=O)[C@H](CC(C)C)NC(=O)[C@H](CCCCN)NC(=O)[C@H](Cc1c[nH]c2ccccc12)NC(=O)[C@@H](NC(=O)[C@H](CCCNC(=N)N)NC(=O)[C@H](CCCCN)NC(=O)[C@@H](NC(=O)[C@@H](N)CCCNC(=N)N)C(C)C)C(C)C)C(C)C)[C@@H](C)CC)C(C)C)C(=O)N[C@@H](CCCCN)C(=O)N[C@@H](CCCCN)C(=O)N[C@@H](CCCCN)C(=O)O` [Fowl-1-KLKLK] (H-RVKRVWKLVIRLVKALYKLYRAIKKK-OH; N-terminus assumed), the EC50 turned out to be 11 µM. Further, the “Antibacterial Activity (MIC, μM) Salmonella” value in [1] worked out at 1.9 µM. Further, the “Antibacterial Activity (MIC, μM) S. aureus” value with S. aureus ATCC 25923 [2] was 1.9 µM. For the same compound, the “Antibacterial Activity (MIC, μM) E. coli” value with E. coli ATCC 25922 [3] (Table V, Example 2, 1% MHB, listed as fowlicidin-1-K^7L^12K^14L^16K^18) was greater than 7.6 µM. Besides, in data set [4], the “Antibacterial Activity (MIC, μM) Listeria” value was greater than 7.6 µM. This compound also gave an EC50 in the data set with LPS from E. coli O111:B4 of 6 µM.

`CC[C@H](C)[C@H](NC(=O)[C@@H](NC(=O)[C@@H](NC(=O)[C@@H](NC(=O)[C@@H](NC(=O)[C@H](CCCCN)NC(=O)[C@@H]1CCCN1)C(C)C)[C@@H](C)O)[C@@H](C)CC)[C@@H](C)O)C(=O)N[C@@H](CCC(N)=O)C(=O)NCC(=O)N[C@@H](CO)C(=O)N[C@@H](C)C(=O)N[C@@H](CCCNC(=N)N)C(=O)N[C@@H](Cc1ccccc1)C(=O)O` [Fowl-2(19-31)] (H-PKVTITIQGSARF-OH; N-terminus and C-terminus assumed): in data set [5], the “MIC (range over bacteria tested)” value was greater than 32 µM.

By MIC is commonly meant the lowest concentration found to suppress growth. Read a high MIC as a less susceptible organism. With `CC[C@H](C)[C@H](NC(=O)[C@H](CCCCN)NC(=O)[C@H](CCCNC(=N)N)NC(=O)[C@H](CC(C)C)NC(=O)[C@H](Cc1ccccc1)NC(=O)[C@H](CCCNC(=N)N)NC(=O)CNC(=O)[C@H](Cc1ccccc1)NC(=O)[C@H](CCCNC(=N)N)NC(=O)CNC(=O)[C@H](CCCNC(=N)N)NC(=O)[C@H](CCC(N)=O)NC(=O)[C@@H](NC(=O)[C@@H](N)CC(C)C)C(C)C)C(=O)N[C@@H](CCCNC(=N)N)C(=O)N[C@@H](CCCNC(=N)N)C(=O)N[C@@H](Cc1ccccc1)C(=O)N[C@@H](CCCNC(=N)N)C(=O)N1CCC[C@H]1C(=O)N[C@@H](CCCCN)C(=O)N[C@H](C(=O)N[C@H](C(=O)N[C@H](C(=O)N[C@H](C(=O)N[C@H](C(=O)N[C@@H](CCC(N)=O)C(=O)NCC(=O)N[C@@H](CO)C(=O)N[C@@H](C)C(=O)N[C@@H](CCCNC(=N)N)C(=O)N[C@@H](Cc1ccccc1)C(=O)O)[C@@H](C)CC)[C@@H](C)O)[C@@H](C)CC)[C@@H](C)O)C(C)C` [Fowlicidin-2] (H-LVQRGRFGRFLRKIRRFRPKVTITIQGSARF-OH; N-terminus and C-terminus assumed), the MIC in data set [6] (NaCl 0 mM) was 0.66 µM (≈ 2.48 µg/mL); in data set [6] (NaCl 100 mM), 1.33 µM (≈ 5 µg/mL); in [7], 0.66 µM (≈ 2.48 µg/mL); against S. aureus ATCC 25923 [2], 0.66 µM (≈ 2.48 µg/mL); with E. coli ATCC 25922 [3] it was 2.66 µM (≈ 10 µg/mL); against K. pneumoniae ATCC 13883 [8], 0.66 µM (≈ 2.48 µg/mL). In data set [9], the MIC is 0.66 µM (≈ 2.48 µg/mL). Further, in data set [5], the “MIC (range over bacteria tested)” value was 0.5 to 2 µM.

With `CC[C@H](C)[C@H](NC(=O)CNC(=O)[C@H](C)NC(=O)[C@H](C)NC(=O)[C@@H](NC(=O)[C@@H](NC(=O)[C@H](CC(N)=O)NC(=O)[C@@H](NC(=O)[C@H](C)NC(=O)[C@@H](NC(=O)[C@@H]1CCCN1C(=O)[C@@H](NC(=O)[C@H](CC(C)C)NC(=O)[C@@H]1CCCN1C(=O)[C@H](Cc1c[nH]c2ccccc12)NC(=O)[C@H](Cc1ccccc1)NC(=O)[C@H](CCCNC(=N)N)NC(=O)[C@@H](N)CCCCN)C(C)C)C(C)C)[C@@H](C)CC)[C@@H](C)O)C(C)C)C(=O)N[C@@H](CC(N)=O)C(=O)N[C@@H](CC(C)C)C(=O)N[C@@H](Cc1ccc(O)cc1)C(=O)N[C@@H](CCCCN)C(=O)N[C@@H](C)C(=O)N[C@H](C(=O)N[C@@H](CCCNC(=N)N)C(=O)N[C@@H](CCCNC(=N)N)C(=O)N[C@@H](CCCCN)C(=O)O)[C@@H](C)CC` [Fowlicidin-3] (H-KRFWPLVPVAINTVAAGINLYKAIRRK-OH; N-terminus and C-terminus assumed), the MIC in [10] was 2 µM (≈ 6.19 µg/mL); in data set [11] it was 2 µM (≈ 6.19 µg/mL); in data set [12], 1 µM (≈ 3.1 µg/mL); in data set [13], 2 µM (≈ 6.19 µg/mL); with S. aureus ATCC 25923 [14] it was 1 µM (≈ 3.1 µg/mL); in the data set with E. coli ATCC 25922 [16] it was 2 µM (≈ 6.19 µg/mL). Also, the values for the MIC (in data set [17]; in data set [19]; in the data set with K. pneumoniae ATCC 13883 [21]) were 2 µM (≈ 6.19 µg/mL), 1 µM (≈ 3.1 µg/mL) and 1 µM (≈ 3.1 µg/mL), respectively. The “cytotoxicity (EC50) fold higher than MICs” value with MDCK cells [15] (in the presence of serum, against all bacterial strains tested) is listed as 10-to 40 fold. In the data set on MDCK cells [15] (read-out: 50% effective concentration (EC50), MDCK cell killing, Example 4, without serum, FIG. 20A), the EC50 came out at 12 µM. Also, in the data set with MDCK cells [18], the “fold reduction in toxicity in the presence of 10% FBS” value was 2 fold. For the same compound, the “MICs (range over bacteria tested)” value in [20] was in the range of 1 to 2 µM.
